Test results from PubChem BioAssay AID1259411 (Chemical Carcinogenesis Research Information System (CCRIS), 2018).
Activity calls are given as the source filed them. How the calls were made is not given here.

Test system: rodent carcinogenicity bioassays, tumor incidence
Assay: CCRIS carcinogenicity studies
Details: Route: GAVAGE, Dose: 0, Dose: 0
How it was run: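 Archive of carcinogenicity, mutagenicity, tumor promotion and tumor inhibition results drawn from journals, NCI reports and other sources, expert-reviewed; covers 1985-2011 and is no longer updated.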

Measured: carcinogen call

CC(CN1c2ccccc2Sc2ccccc21)N(C)C (centres undefined)
inactive: Species: MOUSE, Strain/Sex: B6C3F1/FEMALE, 3.75, 7.5, 15 MG/KG IN WATER 1/D 5 D/WK FOR 103 WK (STUDY DURATION: 106 WK), 3.75, 7.5, 15 MG/KG IN WATER 1/D 5 D/WK FOR 103 WK (STUDY DURATION: 106 WK) inactive; negative | Species: MOUSE, Strain/Sex: B6C3F1/MALE, 11.25, 22.5, 45 MG/KG IN WATER 1/D 5 D/WK FOR 103 WK (STUDY DURATION: 106 WK), 11.25, 22.5, 45 MG/KG IN WATER 1/D 5 D/WK FOR 103 WK (STUDY DURATION: 106 WK) inactive; negative | Species: RAT, Strain/Sex: F344/FEMALE, 8.3, 16.6, 33.3 MG/KG IN WATER 1/D 5 D/WK FOR 103 WK (STUDY DURATION: 106 WK), 8.3, 16.6, 33.3 MG/KG IN WATER 1/D 5 D/WK FOR 103 WK (STUDY DURATION: 106 WK) inactive; negative | Species: RAT, Strain/Sex: F344/MALE, 8.3, 16.6, 33.3 MG/KG IN WATER 1/D 5 D/WK FOR 103 WK (STUDY DURATION: 106 WK), 8.3, 16.6, 33.3 MG/KG IN WATER 1/D 5 D/WK FOR 103 WK (STUDY DURATION: 106 WK) inactive; negative
